According to patent US4986985A, “Method of treating skin virus infections” (Bar Ilan University, priority 1987, dated 1991):

system: peroxide level in the skin; assay: TBA test of peroxide level in skin of adult mice after topical application; type: in vivo; conditions: 0.1% dissolved in Oil of Olay, similar experiments
Text: Samples of lotions and appropriate controls were applied to mice or rat skin for a fixed period. The application was done once a day. Experiments were terminated by killing the animal, peeling the skin and freezing it in liquid nitrogen. Samples of the frozen skin were homogenized in 0.2M phosphate buffer, pH 6.5. After centrifugation, the supernatant was collected and analyzed for the peroxide value using the TBA (thiobarbituric acid) test as described by Sinnhuber et al, Food Res. 23: 620 (1958). In the experiments which follow, newborn (hairless) rats were used. It is generally considered that the penetration through the skin of newborn rats is better than in adult rats, since at this stage they have not yet developed any fur.
In these experiments adult mice (2 months old) were treated as described in Example 2. The grown mice were shaved before applying the lotions to the skin.
In this experiment the antioxidant was dissolved in Oil of Olay. Mice were sacrificed after 21 days.

Structure (SMILES) | reduction of the level of peroxides
Cc1cc(C(C)(C)C)c(O)c(C(C)(C)C)c1 [BHT] | no reduction of the level of peroxides was observed
COc1ccc(O)c(C(C)(C)C)c1 [BHA] | no reduction of the level of peroxides was observed
Cc1c(C)c2c(c(C)c1O)CCC(C)(CCCC(C)CCCC(C)CCCC(C)C)O2 (stereo not drawn) [alpha tocopherol] | no reduction of the level of peroxides was observed
